# From ChEMBL document CHEMBL5584333, “Evo312: An Evodiamine Analog and Novel PKCβI Inhibitor with Potent Antitumor Activity in Gemcitabine-Resistant Pancreatic Cancer” (J Med Chem, 2024)
# Active and inactive are the calls of the source. The rule behind the calls is not given here.
# Columns and labels:
# [1] = system: Gemcitabine-resistant PANC-1; test: Cell cycle distribution in human Gemcitabine-resistant PANC-1 cells assessed as sub-G1 phase cells at 40 nM incubated for 24 hrs by RNase/PI staining based flow cytometric analysis (reference value: 0.30 %); assay type: functional
# [2] = system: Gemcitabine-resistant PANC-1; test: Induction of apoptosis in human Gemcitabine-resistant PANC-1 cells assessed as upregulation of cleaved PARP level at 160 nM incubated for 48 hrs by Western blot analysis; assay type: functional, cell-based
# [3] = system: Gemcitabine-resistant PANC-1; test: Cell cycle distribution in human Gemcitabine-resistant PANC-1 cells assessed as S phase cells at 80 nM incubated for 24 hrs by RNase/PI staining based flow cytometric analysis (reference value: 17.32 %); assay type: functional
# [4] = system: Gemcitabine-resistant PANC-1; test: Effect on PRAS40 expression in human Gemcitabine-resistant PANC-1 cells at 40 to 160 nM by Western blot analysis; assay type: functional, cell-based; settings: dose 40-160 nM
# [5] = molecular target: Glycogen synthase kinase-3 beta (Homo sapiens) (UniProt P49841); test: Inhibition of GSK3beta phosphorylation in human Gemcitabine-resistant PANC-1 cells at 160 nM incubated for 24 hrs by phospho-kinase array analysis; assay type: cell-based
# [6] = molecular target: T1, Protein kinase C beta type (Homo sapiens, UniProt P05771); test: Inhibition of PKCbeta1 in human Gemcitabine-resistant PANC-1 cells incubated for 24 hrs; assay type: cell-based; settings: dose 40-200 nM
# [7] = system: Gemcitabine-resistant PANC-1; test: Cell cycle distribution in human Gemcitabine-resistant PANC-1 cells assessed as G0-G1 phase cells at 160 nM incubated for 24 hrs by RNase/PI staining based flow cytometric analysis (reference value: 45.21 %); assay type: functional
# [8] = system: Gemcitabine-resistant PANC-1; test: Induction of cell cycle arrest in human Gemcitabine-resistant PANC-1 cells assessed as downregulation of Cdc2 protein expression level at 40 to 160 nM incubated for 24 hrs by Western blot analysis; assay type: functional, cell-based; settings: dose 40-160 nM
# [9] = system: Gemcitabine-resistant PANC-1; test: Downregulation of PKCalpha expression in human Gemcitabine-resistant PANC-1 cells at 40 to 160 nM incubated for 24 hrs by Western blotting; assay type: functional, cell-based; settings: dose 40-160 nM
# [10] = system: Gemcitabine-resistant PANC-1; test: Downregulation of p-PRAS40 expression in human Gemcitabine-resistant PANC-1 cells at 40 to 160 nM incubated for 24 hrs by Western blotting; assay type: functional, cell-based; settings: dose 40-160 nM
# PANC-1 [11] = test: Cytotoxicity against human PANC-1 cells assessed as inhibition of cell growth incubated for 72 hrs by SRB assay; assay type: functional, cell-based; settings: PANC-1, 72 h
# [12] = system: Gemcitabine-resistant PANC-1; test: Effect on p70S6K expression in human Gemcitabine-resistant PANC-1 cells at 40 to 160 nM by Western blot analysis; assay type: functional, cell-based; settings: dose 40-160 nM
# [13] = system: Gemcitabine-resistant PANC-1; test: Induction of cell cycle arrest in human Gemcitabine-resistant PANC-1 cells assessed as downregulation of cyclin D1 protein expression level at 40 to 160 nM incubated for 24 hrs by Western blot analysis; assay type: functional, cell-based; settings: dose 40-160 nM
# [14] = system: Gemcitabine-resistant PANC-1; test: Induction of apoptosis in human Gemcitabine-resistant PANC-1 cells assessed as total cell death at 160 nM incubated for 48 hrs by Annexin V-FITC/PI staining based flow cytometric analysis relative to control; assay type: functional
# [15] = system: Gemcitabine-resistant PANC-1; test: Downregulation of PKCbeta1 expression in human Gemcitabine-resistant PANC-1 cells at 40 to 160 nM incubated for 24 hrs by Western blotting; assay type: functional, cell-based; settings: dose 40-160 nM
# [16] = Toxicity in male BALB/c nude mouse xenografted with human Gemcitabine-resistant PANC-1 cells assessed as body weight change at 10 mg/kg, ip administered three times in a week for 20 days; assay type: organism-based; settings: in vivo, 480 h, time 20 day
# [17] = system: Gemcitabine-resistant PANC-1; test: Cell cycle distribution in human Gemcitabine-resistant PANC-1 cells assessed as sub-G1 phase cells at 120 nM incubated for 24 hrs by RNase/PI staining based flow cytometric analysis (reference value: 0.30 %); assay type: functional
# [18] = Cytotoxicity against human MRC5 cells assessed as inhibition of cell growth incubated for 72 hrs by SRB assay; assay type: toxicity, cell-based
# [19] = Toxicity in male BALB/c nude mouse xenografted with human Gemcitabine-resistant PANC-1 cells at 10 mg/kg, ip administered three times in a week for 20 days; assay type: organism-based; settings: in vivo, 480 h, time 20 day
# [20] = Toxicity in male BALB/c nude mouse at 40 mg/kg, ip; assay type: organism-based; settings: in vivo
# [21] = system: Gemcitabine-resistant PANC-1; test: Inhibition of p70S6K phosphorylation in human Gemcitabine-resistant PANC-1 cells at 160 nM incubated for 24 hrs by phospho-kinase array analysis; assay type: cell-based
# [22] = molecular target: T1, Protein kinase C beta type; test: Induction of thermal stabilization of PKCbeta1 in human Gemcitabine-resistant PANC-1 cells at 10 uM incubated for 1 hrs at 40 to 65 degreeC by CETSA; assay type: cell-based
# [23] = system: Gemcitabine-resistant PANC-1; test: Induction of apoptosis in human Gemcitabine-resistant PANC-1 cells assessed as upregulation of cleaved caspase-8 level at 160 nM incubated for 48 hrs by Western blot analysis; assay type: functional, cell-based
# [24] = system: Gemcitabine-resistant PANC-1; test: Antitumor activity against human Gemcitabine-resistant PANC-1 cells xenografted in male BALB/c nude mouse assessed as reduction in tumor weight at 10 mg/kg, ip administered three times in a week for 20 days relative to control; assay type: functional; design: scale not given: the % may be the effect or the level left; settings: time 20 day
# [25] = system: Gemcitabine-resistant PANC-1; test: Downregulation of p-STAT5 expression in human Gemcitabine-resistant PANC-1 cells at 40 to 160 nM incubated for 24 hrs by Western blotting; assay type: functional, cell-based; settings: dose 40-160 nM
# [26] = Cytotoxicity against HPDE6c7 cells assessed as inhibition of cell growth incubated for 72 hrs by SRB assay; assay type: toxicity, cell-based; settings: human
# [27] = system: Gemcitabine-resistant PANC-1; test: Downregulation of PKCepsilon expression in human Gemcitabine-resistant PANC-1 cells at 40 to 160 nM incubated for 24 hrs by Western blotting; assay type: functional, cell-based; settings: dose 40-160 nM
# PANC-1 [28] = test: Antiproliferative activity against human PANC-1 cells transfected with PKCbeta1 siRNA assessed as reduction in cell viability at 0.016 to 10 uM incubated for 72 hrs by MTT assay; assay type: functional, cell-based; settings: dose 0.016-10 µM
# [29] = system: Gemcitabine-resistant PANC-1; test: Effect on STAT5 expression in human Gemcitabine-resistant PANC-1 cells at 40 to 160 nM by Western blot analysis; assay type: functional, cell-based; settings: dose 40-160 nM
# [30] = system: Gemcitabine-resistant PANC-1; test: Effect on Akt expression in human Gemcitabine-resistant PANC-1 cells at 40 to 160 nM by Western blot analysis; assay type: functional, cell-based; settings: dose 40-160 nM
# [31] = system: Gemcitabine-resistant PANC-1; test: Induction of apoptosis in human Gemcitabine-resistant PANC-1 cells assessed as total cell death at 80 nM incubated for 48 hrs by Annexin V-FITC/PI staining based flow cytometric analysis relative to control; assay type: functional
# [32] = system: Gemcitabine-resistant PANC-1; test: Induction of apoptosis in human Gemcitabine-resistant PANC-1 cells assessed as upregulation of cleaved caspase-9 level at 160 nM incubated for 48 hrs by Western blot analysis; assay type: functional, cell-based
# [33] = system: Gemcitabine-resistant PANC-1; test: Induction of cell cycle arrest in human Gemcitabine-resistant PANC-1 cells assessed as downregulation of CDK2 protein expression level at 40 to 160 nM incubated for 24 hrs by Western blot analysis; assay type: functional, cell-based; settings: dose 40-160 nM
# T1 sequence (P05771 2-671 limits assumed): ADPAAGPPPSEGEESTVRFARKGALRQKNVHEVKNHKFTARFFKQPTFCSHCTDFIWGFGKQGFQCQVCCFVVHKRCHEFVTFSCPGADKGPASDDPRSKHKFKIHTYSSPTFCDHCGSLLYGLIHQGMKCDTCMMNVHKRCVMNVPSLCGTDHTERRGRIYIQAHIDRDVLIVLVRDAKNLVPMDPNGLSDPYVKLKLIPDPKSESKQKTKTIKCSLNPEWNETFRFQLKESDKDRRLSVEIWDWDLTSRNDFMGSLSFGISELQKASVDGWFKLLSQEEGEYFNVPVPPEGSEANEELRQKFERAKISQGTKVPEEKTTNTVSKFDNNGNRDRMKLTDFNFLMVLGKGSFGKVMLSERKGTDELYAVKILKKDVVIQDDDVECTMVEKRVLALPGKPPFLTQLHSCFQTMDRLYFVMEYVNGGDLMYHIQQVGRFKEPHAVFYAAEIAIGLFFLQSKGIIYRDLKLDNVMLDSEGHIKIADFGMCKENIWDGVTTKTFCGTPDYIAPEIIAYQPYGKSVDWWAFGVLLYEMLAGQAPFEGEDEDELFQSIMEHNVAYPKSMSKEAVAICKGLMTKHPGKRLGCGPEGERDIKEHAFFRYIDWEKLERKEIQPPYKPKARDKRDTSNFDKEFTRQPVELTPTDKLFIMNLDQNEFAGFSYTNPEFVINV
# Chain of Glycogen synthase kinase-3 beta (Homo sapiens) (P49841 whole entry, looked up): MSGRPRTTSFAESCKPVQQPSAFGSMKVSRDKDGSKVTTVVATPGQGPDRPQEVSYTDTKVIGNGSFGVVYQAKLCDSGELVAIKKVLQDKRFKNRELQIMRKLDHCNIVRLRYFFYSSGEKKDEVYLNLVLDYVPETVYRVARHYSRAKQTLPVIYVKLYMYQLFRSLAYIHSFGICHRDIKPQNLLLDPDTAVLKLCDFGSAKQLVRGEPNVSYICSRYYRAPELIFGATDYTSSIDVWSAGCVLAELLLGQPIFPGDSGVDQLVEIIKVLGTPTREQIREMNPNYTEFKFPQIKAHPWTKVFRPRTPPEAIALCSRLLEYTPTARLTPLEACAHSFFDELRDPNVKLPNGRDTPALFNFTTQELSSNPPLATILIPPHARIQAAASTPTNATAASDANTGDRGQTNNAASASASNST
compound,measurement,setting,value
CC(=O)Oc1ccc2[nH]c3c(c2c1)CCN1C(=O)c2ccccc2N(C)[C@H]31,Activity,[1],0.34%
same,Activity,[2],Active
same,Activity,[3],15.94%
same,Activity,[4],inactive
same,inhibition,[5],Active
same,inhibition,[6],Dose-Dependent Effect
same,Activity,[7],26.28%
same,Activity,[8],Active
same,Activity,[9],inactive
same,Activity,[10],Active
same,IC50,PANC-1 [11],≤ 0.08 µM
same,Activity,[12],inactive
same,Activity,[13],Active
same,Activity,[14],24.95%
same,Activity,[15],Active
same,Activity,[16],Non-Toxic
same,Activity,[17],1.6%
same,IC50 at 72 h,[18],> 50 µM
same,Activity,[19],Non-Toxic
same,Activity,[20],Non-Toxic
same,inhibition,[21],Active
same,Activity,[22],Active
same,Activity,[23],Active
same,Activity,[24],44.89%
same,Activity,[25],Active
same,IC50 at 72 h,[26],2.95 µM
same,Activity,[27],inactive
same,Activity,PANC-1 [28],inactive
same,Activity,[29],inactive
same,Activity,[30],inactive
same,Activity,[31],20.63%
same,Activity,[32],Active
same,Activity,[33],Active
